Earlier results in PubChem BioAssay AID1259410 (Chemical Carcinogenesis Research Information System (CCRIS), 2018).

Test system: rodent tumor promotion studies, tumor incidence
Assay: CCRIS tumor promotion studies
[1] = Carcinogen: 7,12-DIMETHYLBENZ(A)ANTHRACENE, Doses [Carcinogen]: TOP, Route [Carcinogen]: DERMAL, Route [Promoter]: DERMAL, Species: MOUSE, Strain/Sex: FEMALE

For `C[C@]12CC[C@@H]3c4ccc(OS(=O)(=O)O)cc4CC[C@H]3[C@@H]1CCC2=O`, the outcome (Carcinogen: 7,12-Dimethylbenz[a]anthrene, 57-97-6, Doses [Carcinogen]: 5 mg in corn oil, intragastric, once, Doses [Promoter]: 100 ng/ml in drinking water, study duration 20 wk, Route [Carcinogen]: Oral, Route [Promoter]: Oral, Species: Rat, Strain/Sex: Sprague-Dawley/Female (16/group)) is given as “mammary gland: tumor”.
In the case of `COc1ccc(N)cc1N`, the outcome (Carcinogen: N-BIS(2-HYDROXYPROPYL)NITROSAMINE, 53609-64-6, Doses [Carcinogen]: 210 MG/100 G, ONCE (STUDY DURATION: 20 WK), Doses [Promoter]: 0, 0.5% IN DIET FOR 19 WK (STUDY DURATION: 20 WK), Route [Carcinogen]: INTRAPERITONEAL, Route [Promoter]: ORAL, Species: RAT, Strain/Sex: WISTAR/MALE) is listed as “thyroid gland: carcinoma, adenoma”.
For `O=[As](O)(O)O`, the outcome (Carcinogen: 7,12-DIMETHYLBENZ[A]ANTHRACENE [57-97-6], Doses [Carcinogen]: 50 UG 2 X A WK FOR 2 WKS (STUDY DURATION: 25 WKS), Doses [Promoter]: 25 MG/L IN DRINKING WATER FOR 25 WKS, Route [Carcinogen]: DERMAL (SKIN PAINTING), Route [Promoter]: ORAL (DRINKING WATER), Species: MOUSE, Strain/Sex: SWISS NUDE HAIRLESS/MALE) is listed as “skin; papillomas”.
In the case of `CC(=O)OO`, the outcome [1] is given as “integumentary system (skin)”.
In the case of `Cn1c(=O)c2c(ncn2C)n(C)c1=O`, the outcome (Carcinogen: N-NITROSOBIS(2-OXOPROPYL)AMINE, 60599-38-4, Doses [Carcinogen]: 10 MG/KG 1/WK FOR 3 WK, Doses [Promoter]: 0, 2000 PPM IN DRINKING WATER BEGINNING POST CARCINOGEN TREATMENT AND CONTINUING FOR 37 WK (STUDY DURATION: 40 WK), Route [Carcinogen]: SUBCUTANEOUS, Route [Promoter]: ORAL, Species: HAMSTER, Strain/Sex: HAMSTER/FEMALE) is given as “pancreas: adenocarcinoma”.
For `CCCCCCOc1cc(C)c(O)c(C)c1C`, the outcome (Carcinogen: DIETHYLNITROSAMINE, 55-18-5, N-METHYL-N-NITROSOUREA, 684-93-5, N-BUTYL-N-(4-HYDROXYBUTYL)NITROSAMINE, 3817-11-6, DIMETHY, Carcinogen: DIETHYLNITROSAMINE, 55-18-5, N-METHYL-N-NITROSOUREA, 684-93-5, N-BUTYL-N-(4-HYDROXYBUTYL)NITROSAMINE, 3817-11-6, DIMETHY, Doses [Carcinogen]: 100 MG/KG BW DEN ONCE FOLLOWED BY 20 MG/KG BW MNU 4 TIMES AND 0.05% BBN IN DRINKING WATER DURING FIRST 2 WK THEN 40 MG/K, Doses [Promoter]: 0, 1% IN THE DIET FOR 24 WK BEGINNING 1 DAY POST CARCINOGEN TREATMENT (STUDY DURATION: 28 WK), Route [Carcinogen]: INTRAPERITONEAL, INTRAPERITONEAL, ORAL, SUBCUTANEOUS, ORAL, Route [Carcinogen]: INTRAPERITONEAL, INTRAPERITONEAL, ORAL, SUBCUTANEOUS, ORAL, Route [Promoter]: ORAL, Species: RAT, Strain/Sex: F344/MALE) is given as “tongue: papilloma; forestomach: papilloma” and the outcome (Carcinogen: ETHYLNITROSOURETHANE, 614-95-9, Doses [Carcinogen]: 0.01% IN DRINKING WATER FOR 4 WK, Doses [Promoter]: 0, 0.25% IN DIET FOR 36 WK BEGINNING POST CARCINOGEN TREATMENT (STUDY DURATION: 40 WK), Route [Carcinogen]: ORAL, Route [Promoter]: ORAL, Species: RAT, Strain/Sex: F344/MALE) is given as “forestomach: papilloma, carcinoma”.
For `CCCCCCCCCCCCCCCCCC(=O)O[C@@]12C[C@@H](C)[C@@]3(O)[C@@H](C=C(CO)C[C@]4(O)C(=O)C(C)=C[C@@H]34)[C@@H]1C2(C)C`, the outcome (Carcinogen: 7,12-DIMETHYLBENZ[A]ANTHRACENE, 57-97-6, Doses [Carcinogen]: 100 NMOL ONCE, Doses [Promoter]: 0, 100 NMOL 2/WK FOR 39 WK (STUDY DURATION: 39 WK), Route [Carcinogen]: DERMAL, Route [Promoter]: DERMAL, Species: MOUSE, Strain/Sex: NMRI) is given as “skin: tumor”.
In the case of `Oc1ccc(Cl)cc1Cl`, the outcome [1] is listed as “integumentary system (skin)”.
In the case of `CCCCCCCCCCCCCCCCCC`, the outcome (Carcinogen: 7,12-DIMETHYLBENZ(A)ANTHRACENE, Doses [Carcinogen]: TOP, Route [Carcinogen]: DERMAL, Route [Promoter]: DERMAL, Species: MOUSE, Strain/Sex: MALE,FEMALE) is listed as “integumentary system (skin)”.
For `[K+]`, the outcome (Carcinogen: N-BIS-(2-HYDROXYPROPYL)NITROSAMINE [53609-64-6], Doses [Carcinogen]: 2800 MG/KG BW ONCE (STUDY DURATION: 83 WK), Doses [Promoter]: 1000 PPM IN DRINKING WATER FOR 82 WK BEGINNING 1 WK POST LAST CARCINOGEN DOSE (STUDY DURATION: 83 WK), Route [Carcinogen]: SUBCUTANEOUS, Route [Promoter]: ORAL, Species: RAT, Strain/Sex: F344/MALE) is given as “thyroid gland: follicular cell carcinoma” and the outcome (Carcinogen: N-Ethyl-N-hydroxyethylnitrosamine, 13147-25-6, Doses [Carcinogen]: 500 ppm in drinking water for 2 wk, Doses [Promoter]: 0, 350, 1750 ppm in drinking water beginning post carcinogen treatment and continuing for 24 wk (study duration: 26 wk), Doses [Promoter]: 0, 350, 1750 ppm in drinking water beginning post carcinogen treatment and continuing for 24 wk (study duration: 26 wk), Route [Carcinogen]: Oral, Route [Promoter]: Oral, Species: Rat, Strain/Sex: F344/Male (15/group)) is given as “kidney: renal cell tumors (no promoting effect observed)”.
For `NC(Cc1c[nH]c2ccccc12)C(=O)O` (configuration not stated), the outcome (Carcinogen: 2-NAPHTHYLAMINE, Doses [Carcinogen]: DIET, Doses [Promoter]: IN DIET, Route [Carcinogen]: ORAL, Route [Promoter]: ORAL, Species: DOG, Strain/Sex: FEMALE) is given as “urinary bladder” and the outcome (Carcinogen: N-(4-(5-NITRO-2-FURYL)-2-THIAZOLYL)FORMAMIDE, Doses [Carcinogen]: DIET, Doses [Promoter]: IN DIET, Route [Carcinogen]: ORAL, Route [Promoter]: ORAL, Species: RAT, Strain/Sex: F344/MALE) is given as “urinary bladder: papilloma, carcinoma”.
For `O=C(O)C(Cl)(Cl)Cl`, the outcome (Carcinogen: N-METHYL-N-NITROSOUREA, 684-93-5, Doses [Carcinogen]: 25 MG/KG IN STERILE SALINE ONCE, Doses [Promoter]: 0, 25 MMOL/L IN DRINKING WATER FOR 44 WK BEGINNING 2 WK POST CARCINOGEN DOSE (STUDY DURATION: 46 WK), Route [Carcinogen]: INTRAPERITONEAL, Route [Promoter]: ORAL, Species: MOUSE, Strain/Sex: B6C3F1/FEMALE) is listed as “liver: adenoma”, the outcome (Carcinogen: N-METHYL-N-NITROSOUREA, 684-93-5, Doses [Carcinogen]: 25 MG/KG ONCE AT 15 D OF AGE, Doses [Promoter]: 0, 20 NMOL/L IN DRINKING WATER FOR 31 WK BEGINNING AT 7 WK OF AGE (STUDY DURATION: 31 WK), Route [Carcinogen]: INTRAPERITONEAL, Route [Promoter]: ORAL, Species: MOUSE, Strain/Sex: B6C3F1/FEMALE) is listed as “liver: adenoma” and the outcome (Carcinogen: N-METHYL-N-NITROSOUREA, 684-93-5, Doses [Carcinogen]: 25 MG/KG ONCE AT 15 D OF AGE, Doses [Promoter]: 0, 20 NMOL/L IN DRINKING WATER FOR 31 WK BEGINNING AT 7 WK OF AGE (STUDY DURATION: 52 WK), Route [Carcinogen]: INTRAPERITONEAL, Route [Promoter]: ORAL, Species: MOUSE, Strain/Sex: B6C3F1/FEMALE) is listed as “liver: adenoma, carcinoma”. For the same compound, the outcome (Carcinogen: N-METHYL-N-NITROSOUREA, 684-93-5, Doses [Carcinogen]: 25 MMG/KG ONCE AT 15 D OF AGE, Doses [Promoter]: 0, 6.67, 20 NMOL/L IN DRINKING WATER FOR 52 WK BEGINNING AT 7 WK OF AGE (STUDY DURATION: 52 WK), Doses [Promoter]: 0, 6.67, 20 NMOL/L IN DRINKING WATER FOR 52 WK BEGINNING AT 7 WK OF AGE (STUDY DURATION: 52 WK), Route [Carcinogen]: INTRAPERITONEAL, Route [Promoter]: ORAL, Species: MOUSE, Strain/Sex: B6C3F1/FEMALE) was “liver: adenoma, carcinoma”.
In the case of `CC(C)(c1cc(Br)c(O)c(Br)c1)c1cc(Br)c(O)c(Br)c1`, the outcome (Carcinogen: N-bis(2-hydroxypropyl)nitrosamine, 53609-64-6, Doses [Carcinogen]: 0.08 and 0.2% in drinking water for 4 wks at 7-10 wks of age, study duration to 39 wk of age, Doses [Promoter]: In utero (0.01, 0.1, or 1% in diet of dams) and then in drinking water of weaned offspring for 2 wk, Route [Carcinogen]: Oral, Route [Promoter]: In utero and in drinking water, Species: Rat, Strain/Sex: F344/Male (12-15/group)) is given as “none found”.
For `C=Cc1c(C)c2[n-]c1=CC1=NC(=CC3=C(C)C(=C([O-])[O-])C(=N3)C(CC(=O)[O-])=C3N=C(C=2)C(C)C3CCC(=O)[O-])C(CC)=C1C.[Cu+2].[Na+].[Na+].[Na+]` (configuration not stated), the outcome (Carcinogen: 1,2-DIMETHYLHYDRAZINE, 540-73-8, Doses [Carcinogen]: 20 MG/KG/BW 1/WK FOR 5 WK, Doses [Promoter]: 0, 1.5 MILLIMOLAR IN DRINKING WATER BEGINNING POST CARCINOGEN TREATMENT AND CONTINUING FOR DURATION OF STUDY (STUDY DURA, Route [Carcinogen]: INTRAPERITONEAL, Route [Promoter]: ORAL, Species: RAT, Strain/Sex: F344/MALE) is listed as “colorectal: tumor” and the outcome (Carcinogen: 1,2-DIMETHYLHYDRAZINE, 540-73-8, Doses [Carcinogen]: 20 MG/KG/BW 1/WK FOR 5 WK, Doses [Promoter]: 0, 1.5 MILLIMOLAR IN DRINKING WATER THROUGHOUT THE STUDY (STUDY DURATION: 25 WK), Route [Carcinogen]: INTRAPERITONEAL, Route [Promoter]: ORAL, Species: RAT, Strain/Sex: F344/MALE) is listed as “colorectal: tumor”.
In the case of `Cn1cnc([N+](=O)[O-])c1Sc1ncnc2nc[nH]c12`, the outcome (Carcinogen: UV IRRADIATION, Doses [Carcinogen]: 0.53 J/CM2 INCREASED BY 20% EVERY 2 WK TO 1.60 J/CM2 AND MAINTAINED AT 1.60 J/CM2 UNTIL DEATH, ADMINISTERED 5 D/WK FOR 1, Doses [Promoter]: 0, 15 UG/G BEGINNING 2 WK POST FIRST CARCINOGEN DOSE ADMINISTERED 2 HR PRIOR TO EACH CARCINOGEN DOSE (STUDY DURATION: 30, Route [Carcinogen]: DERMAL, Route [Promoter]: INTRAPERITONEAL, Species: MOUSE, Strain/Sex: SKH/HRL/FEMALE) is given as “skin: tumor”.
